These results are taken from patent US20110086834A1, “ALKYNYL ALCOHOLS AS KINASE INHIBITORS” (AMGEN INC., priority 2008, published 2011).

The term pKi denotes the negative decadic logarithm of the Ki, by convention in mol/L.

pKi: −log10 of the molar value. Read-outs that look alike come from different tables or passages of the source. A value given as a limit tells only on which side of the number the result lay.

The experiment addresses T1, NIK (Homo sapiens, UniProt Q99558).
T1 construct: Both assays utilize a truncated form of NIK containing only the catalytic domain; made in house; host or cells: baculovirus expression system (insect cells implied)
Kind of experiment: homogenous time resolved fluorescence (HTRF) assay for NIK Ki measurement. The experiment is classed as biochemical. Background: TR-FRET usually uses a lanthanide donor and a delayed reading to cut background.

Setting [1] is: truncated NIK (catalytic domain only), autophosphorylation, 10 nM enzyme, 20, 100, 200 or 500 μM ATP, room temperature, 2 hours, read-out: Ki activity in the homogenous time resolved fluorescence (HTRF) assay for NIK.

T1 sequence (Q99558 400-655 limits assumed): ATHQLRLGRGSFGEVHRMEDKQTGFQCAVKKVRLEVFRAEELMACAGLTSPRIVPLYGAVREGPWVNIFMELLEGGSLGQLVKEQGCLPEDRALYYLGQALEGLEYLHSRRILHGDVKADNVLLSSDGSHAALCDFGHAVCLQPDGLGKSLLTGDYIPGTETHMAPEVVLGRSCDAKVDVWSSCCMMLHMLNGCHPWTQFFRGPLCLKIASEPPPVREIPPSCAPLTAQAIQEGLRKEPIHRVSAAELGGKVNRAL

Consider `CN1CCC2(CC1)CN(c1nc(N)nc3[nH]cnc13)c1cc(C#CC3(O)CCCC3)ccc12` [Example 187, 1-((1-(2-amino-9H-purin-6-yl)-1′-methylspiro[indoline-3,4′-piperidine]-6-yl)ethynyl)cyclopentanol], for which the pKi under setting [1] is more than 6.00.
On the same count and under the same terms, the figure for `CN1CCC2(C1)CN(c1nc(N)nc3[nH]cnc13)c1cc(C#CC3(O)CCCC3)ccc12` (stereo not drawn) [Example 191, 1-((1-(2-Amino-9H-purin-6-yl)-1′-methyl-1,2-dihydrospiro[indole-3,3′-pyrrolidin]-6-yl)ethynyl)cyclopentanol] is more than 6.00.
For `Nc1ncc(Cl)c(N2CC3(CCOCC3)c3ccc(C#CC4(O)CCCC4)cc32)n1` [Example 205, 1-((1-(2-Amino-5-chloro-4-pyrimidinyl)-1,2,2′,3′,5′,6′-hexahydrospiro[indole-3,4′-pyran]-6-yl)ethynyl)cyclopentanol], under setting [1], the pKi is more than 6.00.
Still for that read-out and setting: with `Nc1ncc(F)c(N2CC3(CCOCC3)c3ccc(C#CC4(O)CCCC4)cc32)n1` [Example 206, 1-((1-(2-Amino-5-fluoro-4-pyrimidinyl)-1,2,2′,3′,5′,6′-hexahydrospiro[indole-3,4′-pyran]-6-yl)ethynyl)cyclopentanol] the figure was more than 6.00; with `CNc1nc(N2CC3(CCOCC3)c3ccc(C#CC4(O)CCCC4)cc32)c2nc[nH]c2n1` [Example 207, 1-((1-(2-(Methylamino)-9H-purin-6-yl)-1,2,2′,3′,5′,6′-hexahydrospiro[indole-3,4′-pyran]-6-yl)ethynyl)cyclopentanol], more than 6.00; with `Nc1ncc(Cl)c(N2CC3(CS(=O)(=O)C3)c3ccc(C#CC4(O)CCCC4)cc32)n1` [Example 212, 1-((1-(2-Amino-5-chloro-4-pyrimidinyl)-1′,1′-dioxido-1,2-dihydrospiro[indole-3,3′-thietan]-6-yl)ethynyl)cyclopentanol], more than 6.00.
The same measure, in the same setting: the figure for `C[C@@](O)(C#Cc1ccc2c(c1)N(c1nc(N)ncc1Cl)CC21CS(=O)(=O)C1)c1nccs1` [Example 213, (2R)-4-(1-(2-Amino-5-chloro-4-pyrimidinyl)-1′,1′-dioxido-1,2-dihydrospiro[indole-3,3′-thietan]-6-yl)-2-(1,3-thiazol-2-yl)-3-butyn-2-ol] is more than 6.00; for `CC(C)(O)C#Cc1ccc2c(c1)N(c1nc(N)ncc1Cl)CC21CCS(=O)(=O)CC1` [Example 217, 4-(1-(2-Amino-5-chloro-4-pyrimidinyl)-1′,1′-dioxido-1,2,2′,3′,5′,6′-hexahydrospiro[indole-3,4′-thiopyran]-6-yl)-2-methyl-3-butyn-2-ol] it is more than 6.00.
As to `C[C@@](O)(C#Cc1ccc2c(c1)N(c1nc(N)ncc1Cl)CC21CCS(=O)(=O)CC1)c1nccs1` [Example 218, (2R)-4-(1-(2-Amino-5-chloro-4-pyrimidinyl)-1′,1′-dioxido-1,2,2′,3′,5′,6′-hexahydrospiro[indole-3,4′-thiopyran]-6-yl)-2-(1,3-thiazol-2-yl)-3-butyn-2-ol], the pKi under setting [1] is more than 6.00.
The same measure, in the same setting: with `Nc1ncc(Cl)c(C2=CC3(CCOCC3)c3ccc(C#CC4(O)CCCC4)cc32)n1` [Example 219, 1-((3-(2-Amino-5-chloro-4-pyrimidinyl)-2′,3′,5′,6′-tetrahydrospiro[indene-1,4′-pyran]-5-yl)ethynyl)cyclopentanol] the figure was more than 6.00.
The same measure, in the same setting: with `Nc1nccc(C2=CC3(CCOCC3)c3ccc(C#CC4(O)CCCC4)cc32)n1` [Example 220, 1-((3-(2-Amino-4-pyrimidinyl)-2′,3′,5′,6′-tetrahydrospiro[indene-1,4′-pyran]-5-yl)ethynyl)cyclopentanol] the figure was more than 6.00; with `C[C@@](O)(C#Cc1ccc2c(c1)C(c1nc(N)ncc1Cl)=CC21CCOCC1)c1nccs1` [Example 221, (2R)-4-(3-(2-Amino-5-chloro-4-pyrimidinyl)-2′,3′,5′,6′-tetrahydrospiro[indene-1,4′-pyran]-5-yl)-2-(1,3-thiazol-2-yl)-3-butyn-2-ol], more than 6.00.
As to `CN1CCC2(C=C(c3nc(N)ncc3Cl)c3cc(C#CC4(O)CCCC4)ccc32)CC1` [Example 222, 1-((3-(2-Amino-5-chloro-4-pyrimidinyl)-1′-methylspiro[indene-1,4′-piperidin]-5-yl)ethynyl)cyclopentanol], the pKi under setting [1] is more than 6.00.
Still for that read-out and setting: the figure for `COCCOc1cnc(N)nc1-c1c[nH]c2ccc(C#CC3(O)CCCC3)cc12` [Example 223, 1-((3-(2-Amino-5-(2-methoxyethoxy)-4-pyrimidinyl)-1H-indol-5-yl)ethynyl)cyclopentanol] is more than 6.00.
`COCCOc1cnc(N)nc1-c1c[nH]c2ccc(C#CC(C)(C)O)cc12` [Example 224, 4-(3-(2-Amino-5-(2-methoxyethoxy)-4-pyrimidinyl)-1H-indol-5-yl)-2-methyl-3-butyn-2-ol] had a pKi of more than 6.00.
With `COCCOc1cnc(N)nc1-c1c[nH]c2ccc(C#CC3(O)CCC3)cc12` [Example 225, 1-((3-(2-Amino-5-(2-methoxyethoxy)-4-pyrimidinyl)-1H-indol-5-yl)ethynyl)cyclobutanol], the pKi under setting [1] is more than 6.00.
For `COCCOc1cnc(N)nc1-c1c[nH]c2ccc(C#CC3(O)CCOCC3)cc12` [Example 226, 4-((3-(2-Amino-5-(2-methoxyethoxy)-4-pyrimidinyl)-1H-indol-5-yl)ethynyl)tetrahydro-2H-pyran-4-ol], the negative logarithm of the Ki (pKi) under setting [1] was 4.52 to 6.00.
As to `COc1cnc(N)nc1-c1c[nH]c2ccc(C#CC3(O)CCCC3)cc12` [Example 227, 1-((3-(2-Amino-5-methoxy-4-pyrimidinyl)-1H-indol-5-yl)ethynyl)cyclopentanol], the negative logarithm of the Ki (pKi) under setting [1] is more than 6.00.
Same read-out and setting: the figure for `COCCOCCOc1cnc(N)nc1-c1c[nH]c2ccc(C#CC3(O)CCCC3)cc12` [Example 228, 1-((3-(2-Amino-5-(2-(2-methoxyethoxy)ethoxy)-4-pyrimidinyl)-1H-indol-5-yl)ethynyl)cyclopentanol] is more than 6.00.
With `COCCOc1cnc(N)nc1-c1c[nH]c2c(F)cc(C#CC3(O)CCCC3)cc12` [Example 229, 1-((3-(2-Amino-5-(2-methoxyethoxy)-4-pyrimidinyl)-7-fluoro-1H-indol-5-yl)ethynyl)cyclopentanol], the negative-log Ki (pKi) under setting [1] is more than 6.00.
Consider `Nc1ncc(OCCN2CCOCC2)c(-c2c[nH]c3ccc(C#CC4(O)CCCC4)cc23)n1` [Example 230, 1-((3-(2-Amino-5-(2-(4-morpholinyl)ethoxy)-4-pyrimidinyl)-1H-indol-5-yl)ethynyl)cyclopentanol], for which the pKi under setting [1] is 4.52 to 6.00.
`Nc1ncc(OCCOCCN2CCOCC2)c(-c2c[nH]c3ccc(C#CC4(O)CCCC4)cc23)n1` [Example 231, 1-((3-(2-Amino-5-(2-(2-(4-morpholinyl)ethoxy)ethoxy)-4-pyrimidinyl)-1H-indol-5-yl)ethynyl)cyclopentanol]: under setting [1], the negative-log Ki (pKi) is more than 6.00.
`Nc1ncc(OCc2cccnc2)c(-c2c[nH]c3ccc(C#CC4(O)CCCC4)cc23)n1` [Example 232, 1-((3-(2-Amino-5-(3-pyridinylmethoxy)-4-pyrimidinyl)-1H-indol-5-yl)ethynyl)cyclopentanol]: under setting [1], the pKi is more than 6.00.
For `COCCOc1cnc(N)nc1-c1cn(C)c2ccc(C#CC3(O)CCCC3)cc12` [Example 233, 1-((3-(2-Amino-5-(2-methoxyethoxy)-4-pyrimidinyl)-1-methyl-1H-indol-5-yl)ethynyl)cyclopentanol], the pKi under setting [1] is more than 6.00.
The same measure, in the same setting: with `COCCOc1cnc(N)nc1-c1cn(CCOC)c2ccc(C#CC3(O)CCCC3)cc12` [Example 234, 1-((3-(2-Amino-5-(2-methoxyethoxy)-4-pyrimidinyl)-1-(2-methoxyethyl)-1H-indol-5-yl)ethynyl)cyclopentanol] the figure was more than 6.00; with `COCCOc1cnc(N)nc1-c1c[nH]c2ccc(C#CC(O)(c3cccc(F)c3)C(F)(F)F)cc12` (stereo not drawn) [Example 236, 4-(3-(2-Amino-5-(2-methoxyethoxy)-4-pyrimidinyl)-1H-indol-5-yl)-1,1,1-trifluoro-2-(3-fluorophenyl)-3-butyn-2-ol], 4.52 to 6.00; with `COCCOc1cncnc1-c1c[nH]c2ccc(C#CC3(O)CCCC3)cc12` [Example 237, 1-((3-(5-(2-Methoxyethoxy)-4-pyrimidinyl)-1H-indol-5-yl)ethynyl)cyclopentanol], more than 6.00.
Regarding `Nc1ncc2c(n1)-c1c([nH]c3ccc(C#CC4(O)CCCC4)cc13)CCC2` [Example 238, 1-((2-Amino-5,6,7,8-tetrahydropyrimido[4′,′:3,4]cyclohepta[1,2-b]indol-11-yl)ethynyl)cyclopentanol], the negative-log Ki (pKi) under setting [1] is more than 6.00.
The same measure, in the same setting: the figure for `Nc1ncc2c(n1)-c1c([nH]c3ccc(C#CC4(O)CCCCC4)cc13)CCC2` [Example 239, 1-((2-Amino-5,6,7,8-tetrahydropyrimido[4′,′:3,4]cyclohepta[1,2-b]indol-11-yl)ethynyl)cyclohexanol] is more than 6.00.
Still for that read-out and setting: with `OC1(C#Cc2ccc3[nH]c4c(c3c2)-c2ncncc2CCC4)CCCC1` [Example 241, 1-(5,6,7,8-Tetrahydropyrimido[4′,′:3,4]cyclohepta[1,2-b]indol-11-ylethynyl)cyclopentanol] the figure was more than 6.00; with `Cc1ncc2c(n1)-c1c([nH]c3ccc(C#CC(C)(C)O)cc13)CCC2` [Example 242, 2-Methyl-4-(2-methyl-5,6,7,8-tetrahydropyrimido[4′,′:3,4]cyclohepta[1,2-b]indol-1′-yl)-3-butyn-2-ol], 4.52 to 6.00.
For the compound `Nc1ncc2c(n1)-c1c([nH]c3ccc(C#CC4(O)CCCC4)cc13)C(=O)NC2` [Example 243, 2-Amino-11-((1-hydroxycyclopentyl)ethynyl)-5,8-dihydropyrimido[4′,′:5,6]azepino[3,4-b]indol-7(6H)-one], under setting [1], the negative-log Ki (pKi) was more than 6.00.
As for `CN1Cc2cnc(N)nc2-c2c(n(C)c3ccc(C#CC4(O)CCCC4)cc23)C1=O` [Example 244, 2-Amino-1′-((1-hydroxycyclopentyl)ethynyl)-6,8-dimethyl-5,8-dihydropyrimido[4′,5′:5,6]azepino[3,4-b]indol-7(6H)-one], under setting [1], the pKi was more than 6.00.
